Source: ChEMBL document CHEMBL2346624, “Pyrrolopyrazines as selective spleen tyrosine kinase inhibitors” (J Med Chem, 2013)
Values after ≈ are worked out from the molar mass of the structure shown.

How the values were obtained:
[1] = Aqueous solubility of the compound by lyophilisate solubility assay; format: physicochemical; settings: buffer
[2] = tested on: Liver microsomes; assay: Metabolic stability in human liver microsomes assessed as GSH adduct formation; format: ADME, Microsome
[3] = Metabolic stability in rat liver microsomes; format: ADME, Microsome; settings: read-out: Stability
[4] = Metabolic stability in human liver microsomes; format: ADME, Microsome; settings: read-out: Stability

| Structure (SMILES) | solubility [1] [µg/mL] | Stability [2] | CLhep predicted [3] [mL/min/kg] | CLhep predicted [4] [mL/min/kg] |
| --- | --- | --- | --- | --- |
| NC(=O)c1cnc(N[C@@H]2CCCC[C@@H]2N)nc1Nc1cccc(-n2nccn2)c1 | < 1 | Stable | 10 | 3 |
| CC(C)(CO)NC(=O)c1c[nH]c2ncc(-n3ncc4ccc(Cl)cc43)nc12 | < 1 | Stable | 35 | 14 |
| CC(C)(C)NC(=O)c1c[nH]c2ncc(-c3nn(CCC(O)CO)c4ccc(OC(F)F)cc34)nc12 (stereo unspecified) | < 1 |  | 49 | 8 |
| CC(C)(C)NC(=O)c1c[nH]c2ncc(-c3nn(CCCS(C)(=O)=O)c4cc(F)ccc34)nc12 | < 1 |  | 43 | 8 |
| COc1cc(Nc2ncc(F)c(Nc3ccc4c(n3)N(COP(=O)(O)O)C(=O)C(C)(C)O4)n2)cc(OC)c1OC [FOSTAMATINIB] | < 1 | Unstable | 47 | 18 |
| CC(C)NC(=O)c1c[nH]c2ncc(-c3nn(C)c4c3CC(C)(C)CC4)nc12 | < 1 |  | 50 | 19 |
| Cn1nc(-c2cnc3[nH]cc(C(=O)NC(C)(C)C)c3n2)c2cc(OC(F)F)ccc21 | < 1 |  | 51 | 18 |
| C[C@@H](CO)NC(=O)c1c[nH]c2ncc(-c3nn(C)c4cc(Cl)ccc34)nc12 | < 1 | Stable | 47 | 16 |
| CC(C)(C)NC(=O)c1c[nH]c2ncc(-c3nn(C4CCNCC4)c4cc(F)ccc34)nc12 | < 1 | Stable | 6 | 3 |
| CC(C)(C)NC(=O)c1c[nH]c2ncc(-c3nn(CCC(O)CO)c4cc(F)ccc34)nc12 (stereo unspecified) | < 1 |  | 23 | 4 |
| CC(C)(C)NC(=O)c1c[nH]c2ncc(-c3n[nH]c4c(CO)cccc34)nc12 | < 1 |  | 51 | 7 |
| CC(C)(C)NC(=O)c1c[nH]c2ncc(-c3n[nH]c4ccc(OC(F)F)cc34)nc12 | < 1 | Stable | 30 | 10 |
| COc1ccc(Nc2nc(-c3cccc(C(=O)Nc4ccc(C(=O)O)cc4)c3)nc3scnc23)cc1OC | < 1 |  |  |  |
| CN(C)CCCn1nc(-c2cnc3[nH]cc(C(=O)NC(C)(C)CO)c3n2)c2cc(OC(F)F)ccc21 | 586 (≈ 1170 µM) |  | 41 | 12 |
| CN(C)CCCn1nc(-c2cnc3[nH]cc(C(=O)NC(C)(C)C)c3n2)c2cc(OC(F)F)ccc21 | < 1 | Stable | 46 | 9 |
| COc1ccc2cnn(-c3cnc4[nH]cc(C(=O)NC(C)(C)C)c4n3)c2c1 | < 1 |  | 37 | 11 |
| Cn1nc(-c2cnc3[nH]cc(C(=O)N[C@H]4C[C@H](O)C4)c3n2)c2ccc(F)cc21 | < 1 |  | 43 | 17 |
